Where no end group is shown, it is not given here. Side-chain parts run from the residue outwards. CX1X1X1RKRLDRIAR‑NH2 = not defined here; bMB = bis-maleimidobutane
Columns and labels:
Assay type in all cases: cell-based
C2C12 murine myoblasts = experiment: Cell growth study, MTS relative cell number, C2C12 cells; conditions: for % OF CONTROL VALUE / MEAN ABSORBANCE: 3 days in culture, MTS
Method: (§1) The synthetic branched peptide construct of Example 4 was tested in cell growth studies, to determine the ability of the synthetic branched peptide construct to stimulate cell growth. Cell growth was monitored using a commercially available kit (Promega Corporation, Madison, Wis.) based on a tetrazolium compound (3-(4,5-dimethylthiazol-2-yl)-5-(3-carboxymethoxyphenyl)-2-(4-sulfophenyl)-2H-tetrazolium, inner salt (MTS). Aliquots of 10^3 cells were seeded into wells of 96-well plates and allowed to attach. The medium was then replaced with a low serum medium containing between 0 and 10 μg/mL of the synthetic branched peptide construct of Example 4. After 3 days in culture, the relative cell number was monitored using MTS following the directions of the manufacturer. Statistical significance was determined using ANOVA followed by post-hoc multiple comparisons versus control group (Dunnett's Method).
(§2) MC3T3E1 osteoblastic cells, C3H10T1/2 mouse pluripotent stem cells, C2C12 murine myoblasts, and cells from a human fetal osteoblast cell line (hFOB) were obtained from the American Type Culture Collection (Manassas, Va.) and were maintained in DMEM:F12 medium containing newborn calf serum and antibiotics. MC3T3E1, C3H10T1/2, and hFOB cells were positive for growth induction by synthetic branched peptide construct of […] as shown in Table 3 below. The effective concentration was between 1 and 10 μg/mL. C2C12 was negative for growth using the synthetic branched peptide construct of Example 4.

[1] = tested on: human fetal osteoblast cell line (hFOB); experiment: Cell growth study, MTS relative cell number, hFOB cells; conditions: for % OF CONTROL VALUE / MEAN ABSORBANCE: hFOB, 3 days in culture, MTS
Method: as §1, §2

[2] = tested on: MC3T3E1 osteoblastic cells; experiment: Cell growth study, MTS relative cell number, MC3T3E1 cells; conditions: for % OF CONTROL VALUE / MEAN ABSORBANCE: 3 days in culture, MTS
Method: as §1, §2

[3] = tested on: C3H10T1/2 mouse pluripotent stem cells; experiment: Cell growth study, MTS relative cell number, C3H10T1/2 cells; conditions: for % OF CONTROL VALUE / MEAN ABSORBANCE: 3 days in culture, MTS
Method: as §1, §2

Substance: NH2-LYVDFSDVGWNDWC(bMB-CX1X1X1RKRLDRIAR-amide)-AISMLYLDENEKVVL-amide (chain 1 H-LYVDFSDVGWNDWC([bMB-CX1X1X1RKRLDRIAR‑NH2]); chain 2 AISMLYLDENEKVVL-NH2; reading uncertain; also: chains 1 and 2 form one continuous backbone (C14 of chain 1 peptide-bonded to A1 of chain 2), printed as NH2-LYVDFSDVGWNDWC(bMB-CX1X1X1RKRLDRIAR-amide)-AISMLYLDENEKVVL-amide) [Example 4, heterodimeric BMP-2 analog branched via cysteine and 1,4-bis-maleimidobutane; X1 is 6-aminohexanoic acid]
- % OF CONTROL VALUE (C2C12 murine myoblasts; C2C12, 0.5 μg/mL): 99%
- MEAN ABSORBANCE (C2C12 murine myoblasts; C2C12, 0.5 μg/mL): 0.30
- % OF CONTROL VALUE (C2C12 murine myoblasts; C2C12, 1 μg/mL): 101%
- MEAN ABSORBANCE (C2C12 murine myoblasts; C2C12, 1 μg/mL): 0.30
- % OF CONTROL VALUE (C2C12 murine myoblasts; C2C12, 2 μg/mL): 99%
- MEAN ABSORBANCE (C2C12 murine myoblasts; C2C12, 2 μg/mL): 0.30
- % OF CONTROL VALUE (C2C12 murine myoblasts; C2C12, 5 μg/mL): 99%
- MEAN ABSORBANCE (C2C12 murine myoblasts; C2C12, 5 μg/mL): 0.30
- % OF CONTROL VALUE (C2C12 murine myoblasts; C2C12, 10 μg/mL): 90%
- MEAN ABSORBANCE (C2C12 murine myoblasts; C2C12, 10 μg/mL): 0.27
- growth induction (C2C12 murine myoblasts; C2C12 cells, 0 to 10 μg/mL, 3 days): negative
- growth induction ([1]; hFOB cells, 0 to 10 μg/mL, 3 days): positive
- % OF CONTROL VALUE ([1]; 0.5 μg/mL): 121%
- MEAN ABSORBANCE ([1]; 0.5 μg/mL): 0.58
- % OF CONTROL VALUE ([1]; 1 μg/mL): 131%
- MEAN ABSORBANCE ([1]; 1 μg/mL): 0.62
- % OF CONTROL VALUE ([1]; 2 μg/mL): 135%
- MEAN ABSORBANCE ([1]; 2 μg/mL): 0.64
- % OF CONTROL VALUE ([1]; 5 μg/mL): 127%
- MEAN ABSORBANCE ([1]; 5 μg/mL): 0.60
- % OF CONTROL VALUE ([1]; 10 μg/mL): 130%
- MEAN ABSORBANCE ([1]; 10 μg/mL): 0.62
- % OF CONTROL VALUE ([2]; MC3T3E1, 0.5 μg/mL): 103%
- MEAN ABSORBANCE ([2]; MC3T3E1, 0.5 μg/mL): 0.74
- % OF CONTROL VALUE ([2]; MC3T3E1, 1 μg/mL): 99%
- MEAN ABSORBANCE ([2]; MC3T3E1, 1 μg/mL): 0.71
- % OF CONTROL VALUE ([2]; MC3T3E1, 2 μg/mL): 138%
- MEAN ABSORBANCE ([2]; MC3T3E1, 2 μg/mL): 0.99
- % OF CONTROL VALUE ([2]; MC3T3E1, 5 μg/mL): 133%
- MEAN ABSORBANCE ([2]; MC3T3E1, 5 μg/mL): 0.96
- % OF CONTROL VALUE ([2]; MC3T3E1, 10 μg/mL): 134%
- MEAN ABSORBANCE ([2]; MC3T3E1, 10 μg/mL): 0.96
- growth induction ([2]; MC3T3E1 cells, 0 to 10 μg/mL, 3 days): positive
- % OF CONTROL VALUE ([3]; C3H10T1/2, 0.5 μg/mL): 147%
- MEAN ABSORBANCE ([3]; C3H10T1/2, 0.5 μg/mL): 0.41
- % OF CONTROL VALUE ([3]; C3H10T1/2, 1 μg/mL): 152%
- MEAN ABSORBANCE ([3]; C3H10T1/2, 1 μg/mL): 0.42
- % OF CONTROL VALUE ([3]; C3H10T1/2, 2 μg/mL): 158%
- MEAN ABSORBANCE ([3]; C3H10T1/2, 2 μg/mL): 0.44
- % OF CONTROL VALUE ([3]; C3H10T1/2, 5 μg/mL): 156%
- MEAN ABSORBANCE ([3]; C3H10T1/2, 5 μg/mL): 0.43
- % OF CONTROL VALUE ([3]; C3H10T1/2, 10 μg/mL): 144%
- MEAN ABSORBANCE ([3]; C3H10T1/2, 10 μg/mL): 0.40
- growth induction ([3]; C3H10T1/2 cells, 0 to 10 μg/mL, 3 days): positive

From patent US20090111743A1, “Cysteine-branched heparin-binding growth factor analogs” (BioSurface Engineering Technologies, Inc., priority 2005, published 2009)
